This is an account of results in patent US12390459B2, “Methods for solid tumor treatment” (CRITITECH, INC., priority 2016, dated 2025).

Where two headings read alike, the source gives them in different places.

Series [1] can be described thus: Particle size analysis (light obscuration and laser diffraction). In kind it is physicochemical. On the procedure:
Particle size was analyzed by both light obscuration and laser diffraction methods. An Particle Sizing Systems AccuSizer 780 SIS system was used for the light obscuration method and Shimadzu SALD-7101 was used for the laser diffraction method.
The vials were vortexed for approximately 10 seconds and then sonicated in a sonic bath approximately 1 minute.
The vial was vortexed for approximately 10 seconds and then sonicated in a sonic bath for approximately 2 minutes. This suspension was used for laser diffraction analysis. Unused suspension was poured into a 125 mL particle-free plastic bottle, which was then filled to approximately 100 mL with filtered dispersant. The suspension was vortex for approximately 10 seconds and then sonicated in the sonic bath for approximately 2 minutes. This diluted suspension was used for light obscuration analysis.
A background test was first performed prior to analyzing particles on the AccuSizer 780 SIS. A new particle-free plastic bottle was filled with blank suspension solution by pumping from a reservoir, using a peristaltic pump, through a 0.22 μm Millipore filter and into the bottle. A background analysis was run to ensure the particle/mL count was below 100 particles/mL. […] Once the analysis was completed, the background data was removed and any measurement with less than four counts was removed.
To analyze particles on SALD-7101 using a batch cell, the analysis was started by choosing Manual Measurement. The refractive index was set as 1.5 to 1.7. The batch cell was filled with filtered dispersant just past the etched line. The blank measurement was ran. […] The measurements were executed, and the resulting graph with the highest level of confidence was selected; background was automatically accounted for.

Series [2] in a line: Docetaxel dissolution study, USP Apparatus II (Paddle). The note with it: for Docetaxel Dissolution: methanol/water 15/85, 37° C., pH 7. It is filed as physicochemical. On the procedure:
At 5, 15, 30, 60, 120 and 225 minutes, a 5 mL aliquot was removed, filtered through a 0.22 μm filter, and analyzed on a UV/VIS spectrophotometer at 232 nm. Absorbance values of the samples were compared to those of standard solutions prepared in dissolution media to determine the amount of material dissolved.

Series [3] is described as follows: Paclitaxel dissolution study, USP Apparatus II (Paddle). It is filed as physicochemical. The note with it: methanol/water 50/50 (v/v), 37° C., pH 7, 75 rpm. Here is the method:
Beads were transferred to a stainless steel mesh container and placed in the dissolution bath containing methanol/water 50/50 (v/v) media at 37° C., pH 7, and a USP Apparatus II (Paddle), operating at 75 rpm. At 10, 20, 30, 60, and 90 minutes, a 5 mL aliquot was removed, filtered through a 0.22 μm filter and analyzed on a U(V/V)is spectrophotometer at 227 nm. Absorbance values of the samples were compared to those of standard solutions prepared in dissolution media to determine the amount of material dissolved.

Series [4] is described as follows: BET surface area analysis. In kind it is physicochemical. Here is the method: As used herein, the “specific surface area” is the total surface area of the taxane particle per unit of taxane mass as measured by the Brunauer-Emmett-Teller (“BET”) isotherm (i.e.: the BET SSA). As will be understood by those of skill in the art, the “taxane particles” can include both agglomerated taxane particles and non-agglomerated taxane particles; since the SSA is determined on a per gram basis it takes into account both agglomerated and non-agglomerated taxane particles in the composition. The BET specific surface area test procedure is a compendial method included in both the United States Pharmaceopeia and the European Pharmaceopeia.
A known mass between 200 and 300 mg of the analyte was added to a 30 mL sample tube. […] The automated test was then carried out using the BETWIN® software package and the surface area of each sample was subsequently calculated.

For series [5], the system named is MX-1 human breast cancer xenografts. The note with it: for animal deaths / animals euthanized: 30 mg/kg IV qwk×3, 10 mice; for inhibition of growth of the xenografts: 30 mg/kg IV qwk×3 vs vehicle. The text has this:
Tumor model: A total of 88 female NCr-nu/nu mice were implanted with MX-1 breast tumor fragments from an in vivo passage subcutaneously (SC) on the right flank. The day of tumor cell implantation was designated as Day 0.
The NanoPac™ and NanoDoce™ are suspensions. Prior to filling each syringe and between the injections of each animal, the test article was gently swirled/inverted. Animals were observed once daily for mortality and moribundity. Adverse signs were documented by exception only. Body weights were collected twice weekly beginning on SD. Tumor measurements were taken twice weekly beginning on SD, using a digital caliper. Length and width were measured for each tumor. Tumor volume was determined using the formula for an ellipsoid sphere: Length×Width 2/2=Volume (mm^3). This formula was also used to calculate tumor weight, assuming unity density (1 mm^3=1 mg). Limit of tumor detection is 32 mg (4×4 mm). The experiment lasted for 63 days from the day of tumor implant. Animals whose weight decreased more than 30% from the weight on the first day of treatment or whose tumor reached 4,000 mg in weight, ulcerated, or sloughed off was euthanized prior to study termination.

Series [6] has as its system MDA-MB-231 human breast cancer xenografts. The note with it: for complete tumor regressions (animals): 30 mg/kg IV qwk×3; for animal deaths: 30 mg/kg IV qwk×3, 10 mice; for mean tumor weight: 30 mg/kg IV qwk×3, Day 29; for inhibition of growth of the xenografts: 30 mg/kg IV qwk×3, Day 29 vs vehicle; for % difference at nadir of response: 30 mg/kg IV qwk×3, Day 33; for tumor-free animals at the end of the study: 30 mg/kg IV qwk×3, Day 61; for tumor-free animals: IV treated group, Day 49. From the text: Study Design: A total of 88 female NCr-nu/nu mice were implanted with MDA-MB-231 breast tumor fragments from an in vivo passage subcutaneously (SC) on the right flank. The day of tumor cell implantation (Aug. 4, 2016) was designated as Day 0.
The NanoPac™ and NanoDoce™ are suspensions. Prior to filling each syringe and between the injections of each animal, the test article was gently swirled/inverted. Intratumoral administration of the test material entailed the use of six needle tracks per tumor (27 G ½ inch needle). One sixth of the dose volume was injected as a slow bolus in each track, with ˜15 seconds pause before removing the needle slowly, and moving to the next injection site spaced over the surface of the tumor. The animals were observed once daily for mortality and moribundity. The mice were weighed and the tumor measurements were taken twice weekly starting on the first day of treatment. Length and width were measured for each tumor. Tumor volume was determined using the formula for an ellipsoid sphere: Length×Width^2/2=Volume(mm^3)
This formula was also used to calculate tumor weight, assuming unity density (1 mm^3=1 mg). Limit of tumor detection was 32 mg (4×4 mm). The experiment lasted for 61 days from the day of tumor implant. Animals whose weight decreased more than 30% from the weight on the first day of treatment or whose tumor reached 4,000 mg in weight, ulcerated, or sloughed off was euthanized prior to study termination.

The subject of series [7] is JIMT-1 human breast cancer xenografts. The series can be described thus: JIMT-1 human breast cancer xenograft study. The conditions noted are these: 30 mg/kg iv qwk×3. It is filed as in vivo, CB.17 SCID mice. On the procedure: Test articles were as follows:
Adjust volume accordingly for body weight. […] Animals were monitored individually. […] When the endpoint is reached, the animals were euthanized.
Tumor growth inhibition was evaluated on D29 (the last day of dosing for animals receiving 5 admins, G1, 3, 4) at 1000 mm^3 and the study ended on D50 with a revised tumor volume endpoint of 600 mm^3 for overall survival analysis.
(In general: Xenograft models place foreign cells or tissue in a host animal.)

Series [8] has as its system PC-3 human prostate carcinoma. Nature of the series: PC-3 prostate carcinoma xenograft, Study P-PPr-01-2015. It is filed as in vivo, nude mouse. The conditions noted are these: IV 30 mg/kg qwk×3. Here is the method: Tumors were measured twice per week. Partial treatment outcome was based on percent tumor growth inhibition (% TGI), defined as the percent difference between the Day 32 median tumor volumes of treated and vehicle-control mice.

A short description of series [9]: Paclitaxel concentration in JIMT-1 tumor tissue (LC/MS/MS). It is filed as in vivo, CB.17 SCID mice. The conditions noted are these: Group 5: 30 mg/kg, IV, qwk × 3; day 50, 35 days after last dose; individual animals. On the procedure: The timing of the analysis for each group relative to the last day of drug administration is as follows: • 21 days after last dose for groups 1, 3 and 4; • 49 days for group 2; and • 35 days for group 5.
Tissue processing was carried out as follows: • 1. Control tumor tissue and tumor tissue samples were weighed and three volumes of water were added to each to yield samples with a dilution factor of 4. • 2. Tumor tissues were homogenized with a homogenizer FastPrep®-24 using a speed of 4.0 m/sec for 100 sec. • 3. 50 μL of control tumor tissue homogenate was added to separate wells of a 96 well plate for STDs, QC samples and blanks. • 4. To the control tumor tissue homogenates, 50 μL of the appropriate solution was added for STDs and QC samples (50 μL of diluent was added for blanks) • 5. For tumor tissue homogenate study samples, 50 μL of each sample was added to separate well of the 96-well plate and 50 μL aliquot of diluent was added to each tissue sample. • 6. To all samples, 200 μL of internal standard (200 ng/mL Warfarin) solution in ACN was added. • 7. The plate was vortexed vigorously for 10 minutes and then centrifuged for 10 minutes at 4000 rpm (Sorvall Legend X1R centrifuge, Thermo Scientific) at 15° C. • 8. After centrifugation, 100 μL aliquots of supernatant were transferred to a new 96-well plate containing 100 μL of water in each well. • 9. […]

Turning to `CC(=O)O[C@@]12CO[C@@H]1C[C@H](O)[C@@]1(C)C(=O)[C@H](O)C3=C(C)[C@@H](OC(=O)[C@H](O)[C@@H](NC(=O)OC(C)(C)C)c4ccccc4)C[C@@](O)([C@@H](OC(=O)c4ccccc4)[C@H]21)C3(C)C` [Docetaxel Raw Material, docetaxel], the “Number Mean” value in series [1] is 1.58 um. For the same compound, the “Volume Mean” value in [1] is 5.05 um. Besides, the “Docetaxel Dissolution” value in [2] (0 minutes) was found to be 0.0%; in series [2] (5 minutes), 3.2%; in series [2] (15 minutes), 6.9%; in series [2] (30 minutes) it was 11.2%; in [2] (60 minutes) it was 16.4%; in series [2] (120 minutes), 22.4%. Besides, in series [2] (225 minutes), the “Docetaxel Dissolution” value was 26.8%. For the same compound, in series [2] (methanol/water 15/85 (v/v), 37° C., pH 7, 75 rpm), the “Dissolution (30 min)” value worked out at 11%.

In the case of `CC(=O)O[C@H]1C(=O)[C@@]2(C)[C@H]([C@H](OC(=O)c3ccccc3)[C@]3(O)C[C@H](OC(=O)[C@H](O)[C@@H](NC(=O)c4ccccc4)c4ccccc4)C(C)=C1C3(C)C)[C@]1(OC(C)=O)CO[C@@H]1C[C@@H]2O` [Paclitaxel Raw Material, paclitaxel], the “Number Mean” value in series [1] came out at 1.16 um. In series [3], the “Dissolution (30 min)” value is 18%. Besides, the “Surface Area” value in [4] (BET) turned out to be 10.4 m^2/g. The compound also had a BET surface area in series [4] (Example 1) of 7.25 m^2/g.

As to `CC(=O)O[C@@]12CO[C@@H]1C[C@H](O)[C@@]1(C)C(=O)[C@H](O)C3=C(C)[C@@H](OC(=O)[C@H](O)[C@@H](NC(=O)OC(C)(C)C)c4ccccc4)C[C@@](O)([C@@H](OC(=O)c4ccccc4)[C@H]21)C3(C)C` [docetaxel], in [5], the “animal deaths / animals euthanized” value was “two animals euthanized for body weight loss >30%” and the “inhibition of growth of the xenografts” value is given as “significantly inhibited the growth”. This compound showed a mean tumor weight in [5] (30 mg/kg IV qwk×3, Day 28) of 0.9 mg. Besides, in series [5] (30 mg/kg IV qwk×3, Day 31), the “animals with completely regressed tumors” value is on record as “nine”. Moreover, the “surviving animals tumor-free at the end of the study” value in [5] (30 mg/kg IV qwk×3, Day 63) is on record as “eight”. Besides, in series [6], the “complete tumor regressions (animals)” value was found to be 10, the animal deaths entry is on record as “no animal deaths”, the mean tumor weight was found to be 16 mg and the “inhibition of growth of the xenografts” value is listed as “significantly inhibited the growth”. Besides, in series [6], the “% difference at nadir of response” value is given as −99.8%, the “tumor-free animals at the end of the study” value came out at 10 and the tumor-free animals result was “ten”. In series [6] (30 mg/kg IV qwk×3, Day 40), this compound displayed a mean tumor volume of 0.

Turning to `CC(=O)O[C@H]1C(=O)[C@@]2(C)[C@H]([C@H](OC(=O)c3ccccc3)[C@]3(O)C[C@H](OC(=O)[C@H](O)[C@@H](NC(=O)c4ccccc4)c4ccccc4)C(C)=C1C3(C)C)[C@]1(OC(C)=O)CO[C@@H]1C[C@@H]2O` [paclitaxel], in series [5], the “animal deaths / animals euthanized” value is reported as “without animal deaths” and the “inhibition of growth of the xenografts” value is on record as “significantly inhibited the growth”. In series [5] (30 mg/kg IV qwk×3, Day 24), this compound displayed a mean tumor weight of 309 mg. In addition, the “% difference at nadir of response” value in series [5] (30 mg/kg IV qwk×3, Day 31) is given as −86.0%. Besides, in series [7], the TGI result is recorded as “significant TGI” and the survival extension entry is reported as “significantly improved survival extension”. Also, in series [6], the “complete tumor regressions (animals)” value is recorded as “six”, the animal deaths result was “without animal deaths”, the mean tumor weight is listed as 118 mg and the “inhibition of growth of the xenografts” value is “significantly inhibited the growth”. Also, in series [6], the “% difference at nadir of response” value was −97.4%, the “tumor-free animals at the end of the study” value is reported as “three” and the tumor-free animals result was “three”. In [8], the TGI result is “significant TGI” and the survival extension entry is on record as “significantly improved survival extension”. Also, in series [9], the “Paclitaxel Concentration in tumor tissue” value is reported as “BQL < 1 ng/g”.
